Results taken from PubChem BioAssay (NCI).
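Protocol summary: plate cells (96-well), add compound at 5 concentrations, incubate 48 h, interpolate endpoints linearly. TGI denotes the concentration required for complete inhibition of growth.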

Experiments:
Assay in all cases: NCI-60 cell line screen, 48 h
HCT-116 colon = tested on: HCT-116 colon
HL-60(TB) leukemia = tested on: HL-60(TB) leukemia
HOP-62 NSCLC = tested on: HOP-62 NSCLC
MDA-MB-231 breast = tested on: MDA-MB-231 breast
MDA-N = tested on: MDA-N
NCI-H23 lung = tested on: NCI-H23 lung
NCI-H522 lung = tested on: NCI-H522 lung
NCI/ADR-RES ovarian = tested on: NCI/ADR-RES ovarian
OVCAR-3 ovarian = tested on: OVCAR-3 ovarian
SF-268 CNS = tested on: SF-268 CNS
SR leukemia = tested on: SR leukemia
SW-620 colon = tested on: SW-620 colon

| SMILES | TGI (HCT-116 colon) [µM] | TGI (HL-60(TB) leukemia) [µM] | TGI (HOP-62 NSCLC) [µM] | TGI (MDA-MB-231 breast) [µM] | TGI (MDA-N) [µM] | TGI (NCI-H23 lung) [µM] | TGI (NCI-H522 lung) [µM] | TGI (NCI/ADR-RES ovarian) [µM] | TGI (OVCAR-3 ovarian) [µM] | TGI (SF-268 CNS) [µM] | TGI (SR leukemia) [µM] | TGI (SW-620 colon) [µM] |
| --- | --- | --- | --- | --- | --- | --- | --- | --- | --- | --- | --- | --- |
| CC1=NN(C(=O)CC(=O)Nc2cccc(Cl)c2)C(=O)C1N=Nc1ccc(C(=O)O)cc1 (stereo unspecified) | > 100 | > 100 | > 100 | > 100 | > 100 | > 100 | > 100 | > 100 | > 100 | > 100 | > 100 | > 100 |
| CC(=O)c1sc(=N)n(-c2c(C)cccc2C)c1C | – | > 100 | > 100 | > 100 | > 100 | > 100 | > 100 | > 100 | > 100 | > 100 | > 100 | > 100 |
| O=C(CSC1=NNC2(C(=O)N1)c1ccccc1-c1ccccc12)NC(=S)Nc1ccccc1 | > 10 | > 10 | > 10 | > 10 | > 10 | > 10 | > 10 | > 10 | – | > 10 | > 10 | > 10 |
| CC(=O)OCC(Br)C1(C)CCC(C(C)(C)Br)O1 (stereo unspecified) | > 100 | > 100 | > 100 | > 100 | > 100 | > 100 | 86.7 | > 100 | > 100 | > 100 | > 100 | > 100 |
| Cc1ncc([N+](=O)[O-])n1CCNC(=O)Cn1c([N+](=O)[O-])cnc1C | > 100 | > 100 | > 100 | > 100 | > 100 | > 100 | > 100 | > 100 | > 100 | > 100 | > 100 | > 100 |
| N#CC(C#N)=Cn1c(=S)[nH]c2ccccc21 | > 100 | > 100 | > 100 | > 100 | > 100 | > 100 | > 100 | > 100 | > 100 | > 100 | > 100 | > 100 |
| O=c1[nH]n(Cc2ccccc2Cl)c2ccccc12 | > 100 | > 100 | > 100 | > 100 | > 100 | > 100 | > 100 | > 100 | > 100 | > 100 | > 100 | > 100 |
| Cc1cccc2c(=O)c3cccc([C@@H](C)C(=O)O)c3oc12 | > 100 | > 100 | > 100 | > 100 | > 100 | > 100 | > 100 | > 100 | > 100 | > 100 | > 100 | > 100 |
| S=c1[nH]nc(NNc2ccccc2)n1Nc1ccccc1 | > 100 | 57.2 | > 100 | > 100 | > 100 | > 100 | > 100 | > 100 | > 100 | > 100 | > 91.1 | > 100 |
| CC(C)C(NC(=O)C(Cc1ccccc1)NC(=O)[C@H]1CCC[C@H]1NC(=O)C(N)Cc1ccc(O)cc1)C(N)=O (stereo partly specified) | > 100 | > 100 | > 100 | > 100 | > 100 | > 100 | > 100 | > 100 | > 100 | > 100 | > 100 | > 100 |
| CNCCC=C1c2ccccc2CCc2ccccc21 | 27.8 | 31.7 | 28.2 | > 51.9 | 29 | 29.9 | 29.2 | 30.4 | 23.6 | 29.6 | 32.7 | 34.6 |
| COc1cc2c(cc1OC)C(=O)N(NC1=NCCN1)C2=O | > 100 | > 100 | > 100 | > 100 | > 100 | > 100 | > 100 | > 100 | > 100 | > 100 | > 100 | > 100 |
| O=C1Oc2cc3c(c4cccc1c24)O[C@H](c1ccccc1)[C@@H](c1ccccc1)[C@@H]3c1ccc(Cl)cc1 | > 100 | > 100 | 42.8 | 52.3 | > 100 | > 100 | > 100 | > 100 | > 100 | > 100 | 87.2 | > 100 |
| COc1ccc(C(=O)Nc2ccc3oc(-c4ccccc4)nc3c2)cc1 | > 100 | > 100 | > 100 | > 100 | > 100 | > 100 | > 100 | > 100 | > 100 | > 100 | > 100 | > 100 |
| CC(=O)O[C@@H](C1C[C@@H](C)[C@H]2[C@@](O)(O1)[C@H](O)[C@@]1(C)C3=CC[C@H]4C(C)(C)[C@@H](OC5OCC(O)C(O)C5O)CC[C@@]45C[C@@]35CC[C@]21C)C(C)(C)O (stereo partly specified) | 41.5 | 15.3 | 70.7 | 37.2 | 73.6 | 49 | 36.9 | > 100 | 41.9 | > 100 | 49.8 | > 100 |
| COc1ccc(N2C(=O)CC(c3c[nH]c4ncccc34)C2=O)cc1 (stereo unspecified) | 45.8 | > 37.4 | > 100 | 40.3 | 20.1 | > 58.4 | 24.2 | > 79.1 | 36.2 | > 100 | > 20 | 40.7 |
| O=C(NNC(=O)c1ccccc1O)c1ccc(O)cc1 | > 100 | > 100 | > 100 | 69.7 | > 100 | – | 56.7 | 90.9 | > 100 | > 100 | > 100 | > 100 |
